Data from patent US20150275306A1, “METHODS AND MEANS FOR PREDICTING RESISTANCE TO ANTI-CANCER TREATMENT” (Stichting Het Nederlands Kanker Instituut Antoni van …, priority 2012, published 2015).

Columns and labels:
[1] = tested on: H3122 cells; assay: Long-term cell proliferation (colony formation) assay in H3122; type: cell-based; conditions: for effect of MED12 knockdown on response to chemotherapy drugs, H3122: shMED12 #4 and #5, 2 μM cisplatin or 2.5 μM 5-FU, 18 days; for effect of MED12 knockdown on response to ALK inhibitors, H3122: shMED12 #1-3, 300 nM crizotinib or 2.5 nM NVP-TAE684; for effect of recombinant TGFbeta treatment on drug response, H3122: TGFbeta-dosage dependent, crizotinib, cisplatin 2 μM
Protocol: (§1) H3122, PC9, H3255, SK-CO-1 and SW1417 cells were cultured in RPMI with 8% heat inactivated fetal bovine serum, penicillin and streptomycin at 5% CO2. HEK 293T, Phoenix and A375, SK-MEL-28 and Huh-7 cells were cultured in DMEM with 8% heat-inactivated fetal bovine serum, penicillin and streptomycin at 5% CO2. Subclones of each cell line expressing the murine ecotropic receptor were generated and used for all experiments shown. Phoenix cells were used as producers of retroviral supernatants as described at www.stanford.edu/group/nolan/retroviral_systems/phx.html. HEK 293T cells were used as producers of lentiviral supernatants as described at www.broadinstitute.org/rnai/public/resources/protocols. The calcium phosphate method was used for the transfection of Phoenix and 293T cells. Infected cells were selected for successful retroviral integration using 2 μg/ml of puromycin.
(§2) For long-term cell proliferation assays, cells were seeded into 6-well plates (2-5×10E4 cells/well) and cultured both in the absence and presence of drugs as indicated. More details are described (Huang et al., 2009. Cancer Cell 15: 328-340). All knockdown and overexpression experiments were done by retroviral or lentiviral infection. All relevant assays were performed independently at least three times.

[2] = tested on: SK-CO-1 colorectal cancer cells (KRASV12); assay: Long-term cell proliferation (colony formation) assay in SK-CO-1; type: cell-based
Protocol: as §1, §2

[3] = molecular target: TGFbeta receptor Type II (Homo sapiens, UniProt P37173); conditions: cited from earlier work
Sequence of TGFbeta receptor Type II (P37173 23-567, species assumed): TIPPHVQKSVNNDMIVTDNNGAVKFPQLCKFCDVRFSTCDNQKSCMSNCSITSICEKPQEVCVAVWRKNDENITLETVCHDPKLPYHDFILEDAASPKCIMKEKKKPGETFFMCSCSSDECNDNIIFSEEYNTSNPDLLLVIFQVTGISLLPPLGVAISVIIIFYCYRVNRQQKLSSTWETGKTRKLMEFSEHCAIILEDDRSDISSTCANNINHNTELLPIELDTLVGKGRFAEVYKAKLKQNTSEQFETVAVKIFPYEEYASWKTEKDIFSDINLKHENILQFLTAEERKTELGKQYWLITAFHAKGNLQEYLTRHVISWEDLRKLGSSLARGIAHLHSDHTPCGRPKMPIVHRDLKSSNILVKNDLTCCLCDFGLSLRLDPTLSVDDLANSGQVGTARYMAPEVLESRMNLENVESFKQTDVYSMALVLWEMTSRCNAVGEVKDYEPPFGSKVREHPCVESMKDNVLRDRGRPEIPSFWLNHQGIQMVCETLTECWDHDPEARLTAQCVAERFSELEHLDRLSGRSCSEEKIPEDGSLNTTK

[4] = tested on: H3122 cells; conditions: parental H3122, EML4-ALK translocation; McDermott et al., 2008; cited from earlier work
[5] = tested on: PC9 cells; assay: Long-term cell proliferation (colony formation) assay in PC9; type: cell-based; conditions: for effect of recombinant TGFbeta treatment on drug response, PC9: TGFbeta-dosage dependent, gefitinib 50 nM, cisplatin 0.7 μM
Protocol: (§3) H3122, PC9, H3255, SK-CO-1 and SW1417 cells were cultured in RPMI with 8% heat inactivated fetal bovine serum, penicillin and streptomycin at 5% CO2. […] Subclones of each cell line expressing the murine ecotropic receptor were generated and used for all experiments shown. Phoenix cells were used as producers of retroviral supernatants as described at www.stanford.edu/group/nolan/retroviral_systems/phx.html. […] Infected cells were selected for successful retroviral integration using 2 μg/ml of puromycin.
as §2, with “More details are described (Huang et al., 2009. Cancer Cell 15: 328-340).” left out

[6] = tested on: H3255 cells; type: cell-based
Protocol: as §3
as §2, with “More details are described (Huang et al., 2009. Cancer Cell 15: 328-340).” left out

[7] = tested on: Huh-7 HCC cells; assay: Long-term cell proliferation (colony formation) assay in Huh-7; type: cell-based
Protocol: as §1, §2

[8] = tested on: MEK/ERK activation in PC9 cells; assay: Western blotting of MEK/ERK activation in PC9; type: cell-based
Excerpt: (§4) Antibody against MED12 (A300-774A) and MED13 (A301-278A) was from Bethyl Laboratories; antibodies against Vimentin (RV202) and N-cadherin (ab18203) were from Abcam; antibody against p-SMAD2 (Ser465/467, #3101), SMAD2 (L16D3, #3103), pMEK1/2 (S217/221, #9121) and MEK1/2 (L38C12, #4694) were from Cell Signaling; anti-Flag M2 (F1804) was from Sigma; antibodies against HSP90 (H-114), p-ERK (E-4), ERK1 (C-16), ERK2 (C-14), CDK8 (D-9), Lamin A/C (636), SP1 (PEP2), alpha-TUBULIN (H-183), TGFbeta R2 (C-16), CDK8 (D9) and normal rabbit IgG control were from Santa Cruz Biotechnology; A mixture of ERK1 and ERK2 antibodies was used for detection of total ERK; 12CA5 hybridoma supernatant was also used to detect HA tagged-TGFbeta R2.

[9] = tested on: A375 melanoma cells (BRAFV600E); assay: Long-term cell proliferation (colony formation) assay in A375; type: cell-based; conditions: without targeted cancer drugs
Protocol: as §3
as §2, with “More details are described (Huang et al., 2009. Cancer Cell 15: 328-340).” left out

[10] = tested on: MEK/ERK activation in H3255 cells; assay: Western blotting of MEK/ERK activation in H3255; type: cell-based
Excerpt: as §4

[11] = tested on: MEK/ERK activation in H3122 cells; assay: Western blotting of MEK/ERK activation in H3122; type: cell-based; conditions: data not shown
Excerpt: as §4

[12] = tested on: Vimentin, N-cadherin and p-ERK in Huh7 cells; assay: Western blotting of mesenchymal markers and p-ERK in Huh7; type: cell-based; conditions: 50 picoM of TGFbeta for 6 days
Excerpt: as §4

Question: For `O=c1[nH]cc(F)c(=O)[nH]1` [5-FU, 5-Fluorouracil], which “effect of MED12 knockdown on response to chemotherapy drugs, H3122” value [1] is on record?
Answer: confers resistance

Question: Which “effect of MED12 knockdown on response to MEK inhibitor, SK-CO-1” value ([2]; 0.5 μM AZD6244, 28 days) does the source give for `Cn1cnc2c(F)c(Nc3ccc(Br)cc3Cl)c(C(=O)NOCCO)cc21` [AZD6244, seluteminib] here?
Answer: conferred resistance

Question: And the “effect of recombinant TGFbeta treatment on drug response, SK-CO-1” value ([2]; TGFbeta-dosage dependent, AZD6244 0.5 μM)?
Answer: leads to resistance

Question: What about the “sensitivity of SK-CO-1 cells” value ([2]; parental cells) of the same compound?
Answer: highly sensitive

Question: Which “proliferation of control and MED12KD H3122 cells, monotherapy” value ([1]; 1 μM LY2157299 alone, 14 days) does the source give for `Cc1cccc(-c2nn3c(c2-c2ccnc4ccc(C(N)=O)cc24)CCC3)n1` [LY2157299, 4-(2-(6-methylpyridin-2-yl)-5,6-dihydro-4H-pyrrolo[1,2-b]pyrazol-3-yl)quinoline-6-carboxamide] here?
Answer: little effect

Question: And the IC50 [3]?
Answer: 2 nM

Question: With `COc1cc(N2CCC(N3CCN(C)CC3)CC2)ccc1Nc1ncc(Cl)c(Nc2ccccc2S(=O)(=O)C(C)C)n1` [NVP-TAE684] as the compound, how does the “effect of MED12 knockdown on response to ALK inhibitors, H3122” value ([1]; 28 days) read?
Answer: conferred resistance

Question: And the “sensitivity of H3122 cells to selective ALK inhibitors” value [4]?
Answer: exquisitely sensitive

Question: With `N.N.[Cl][Pt][Cl]` [cisplatin] as the compound, how does the “effect of recombinant TGFbeta treatment on drug response, H3122” value [1] read?
Answer: leads to resistance

Question: And the “effect of MED12 knockdown on response to chemotherapy drugs, H3122” value [1]?
Answer: confers resistance

Question: What about the “effect of recombinant TGFbeta treatment on drug response, PC9” value [5] of the same compound?
Answer: leads to resistance

Question: And the “effect of MED12 knockdown on response to cisplatin, PC9” value ([5]; shMED12 #4 and #5, 0.37 or 1.1 μM cisplatin, 21 days)?
Answer: confers resistance

Question: With `C[C@@H](Oc1cc(-c2cnn(C3CCNCC3)c2)cnc1N)c1c(Cl)ccc(F)c1Cl` [crizotinib] as the compound, how does the “effect of recombinant TGFbeta treatment on drug response, H3122” value [1] read?
Answer: leads to resistance

Question: What about the “proliferation of control H3122 cells” value ([1]; pRS control cells, 300 nM crizotinib alone, 28 days) of the same compound?
Answer: potently inhibited the proliferation

Question: What about the “effect of MED12 knockdown on response to ALK inhibitors, H3122” value ([1]; 28 days) of the same compound?
Answer: conferred resistance

Question: And the “sensitivity of H3122 cells to selective ALK inhibitors” value [4]?
Answer: exquisitely sensitive

Question: Which results are given for `C#Cc1cccc(Nc2ncnc3cc(OCCOC)c(OCCOC)cc23)c1` [erlotinib]?
Answer: effect of MED12 knockdown on response to EGFR inhibitors, H3255 [6]: conferred resistance; effect of MED12 knockdown on response to EGFR inhibitors, PC9 [5]: conferred resistance

Question: Which “effect of recombinant TGFbeta treatment on drug response, PC9” value [5] does the source give for `COc1cc2ncnc(Nc3ccc(F)c(Cl)c3)c2cc1OCCCN1CCOCC1` [gefitinib] here?
Answer: leads to resistance

Question: With `CNC(=O)c1cc(Oc2ccc(NC(=O)Nc3ccc(Cl)c(C(F)(F)F)c3)cc2)ccn1` [sorafenib] as the compound, how does the “effect of MED12 knockdown on response to sorafenib, Huh-7” value ([7]; 2 μM sorafenib, 21 days) read?
Answer: became resistant

Question: Which results are given for “recombinant TGFbeta: Recombinant hTGFbeta 1 (240-B/CF) purchased from R&D systems”?
Answer: MEK/ERK activation in PC9 cells [8]: caused MEK/ERK activation; proliferation of A375 cells, TGFbeta alone [9]: growth inhibition; MEK/ERK activation in H3255 cells [10]: caused MEK/ERK activation; MEK/ERK activation in H3122 cells [11]: caused MEK/ERK activation; levels of Vimentin, N-cadherin and p-ERK in Huh7 cells [12]: increased levels of Vimentin, N-cadherin and p-ERK; proliferation of Huh-7 cells, TGFbeta alone ([7]; without targeted cancer drugs, data not shown): growth inhibition
